Where a SMILES comes first, the peptide text is derived from it. The star is where a group is joined. 6FAM = O=C1OC2(c3ccc(O)cc3Oc3cc(O)ccc32)c2cc(C(=O)*)ccc21
Test: Microfluidic peptide partitioning and transport through cervical mucus
Assay type: in vitro ADME, human
Settings: for average maximum concentration of peptide accumulated inside mucus (enrichment at mucus-buffer interface): 15-min experiment; for average maximum concentration of peptide accumulated inside mucus (enrichment at mucus-buffer interface) / concentration of the peptide at the end of the channel (450 μm): mean (SD)
Method: We quantified partitioning and transport of the reporter peptides through mucus using a previously described microfluidics device, [38]. With this setup, a continuous aqueous flow of fluorescent peptides is generated within a micron-scale channel at carefully controlled rates adjacent to a stable mucus layer. The small sample volume (5 μL) required for this system is ideally suited for the study of native mucus samples, which are typically not available in large volumes. The peptide solutes partition into the mucus layer, and their subsequent transport is monitored with fluorescence microscopy (Fig. 3a and b).
We quantified the transport of (+) and (−) charged peptides in mucus from 20 ovulating, 15 low-risk pregnant, and 9 high-risk pregnant patients (Table 2; see the table caption for specific information on cohort composition). […] Peptides at a concentration of 4 μM were introduced into the microfluidic channel in the presence of the mucus sample or in the presence of buffer. […] Concentration profiles of the fluorescent peptides were acquired through the center cross - section of the mucus channel (Fig. 3a,b, Methods).
Peptides were synthesized, purified, and identified by the Swanson Biotechnology Center at the Koch Institute at MIT (Cambridge, MA, USA). […] Peptides were purified using reverse-phase high performance liquid chromatography. […] Before use in the microfluidic device, peptides were dissolved in H7 buffer (20 mM HEPES, 20 mM NaCl, pH 7) at a final concentration of 4 μM.
Microfluidic polydimethylsiloxane devices were designed and fabricated as previously described, [38], and cured at 95 °C for 48–72 h prior to use. Devices bonded to microscope slides were mounted on an inverted epifluorescence microscope (IX-71, Olympus American, Central Valley, PA; or Zeiss Observer Z1) equipped with a 5x or 10x objective and LED light source or mercury lamp (excitation at 450–495 nm or 475 nm, respectively). All channels were washed with H7 buffer before use. The two valves were closed or opened by applying or releasing pressure with a 3-mL syringe connected to the valves via polytetrafluoroethylene tubing. All experiments were carried out at room temperature. One to two microliters of sample were injected to fill the main channel. The two valves were closed while the inlet and outlet channels were washed with H7 buffer. The top valve was opened, exposing the mucus interface. Twenty-five microliters of peptide solution were added to the reservoir of each inlet. The flow rate of the peptide solution into the inlet channel was determined by gravitational flow. […] At least two successful experimental replicates were obtained for each patient mucus sample, except for one sample of cervical mucus, for which only one measurement was obtained.
Images were analyzed using ImageJ (v1.47; Wayne Rasband, National Institutes of Health, Bethesda, MD, USA; http://imagej.nih.gov/ij) and MATLAB software.

| average maximum concentration of peptide accumulated inside mucus (enrichment at mucus-buffer interface) (mucus from high-risk pregnant patients (n = 9), microfluidic channel, 4 μM FAM-labelled peptide in H7 buffer pH 7, room temperature, epifluorescence read-out) [µM] | average maximum concentration of peptide accumulated inside mucus (enrichment at mucus-buffer interface) (mucus from low-risk pregnant women (n = 15), microfluidic channel, 4 μM FAM-labelled peptide in H7 buffer pH 7, room temperature, epifluorescence read-out) [µM] | average maximum concentration of peptide accumulated inside mucus (enrichment at mucus-buffer interface) (mucus from ovulating non-pregnant women (n = 20), microfluidic channel, 4 μM FAM-labelled peptide in H7 buffer (20 mM HEPES, 20 mM NaCl, pH 7), room temperature, epifluorescence read-out) [µM] | SMILES | concentration of the peptide at the end of the channel (450 μm) (mucus from high-risk pregnant patients (n = 9), 4 μM FAM-labelled peptide in H7 buffer pH 7, room temperature, epifluorescence read-out) [nM] | retention (enrichment) of the peptide at the mucus barrier interface (mucus from high-risk pregnant patients (n = 9), microfluidic channel, 4 μM FAM-labelled peptide in H7 buffer pH 7, room temperature) | concentration of the peptide at the end of the channel (450 μm) (mucus from low-risk pregnant patients (n = 15), 4 μM FAM-labelled peptide in H7 buffer pH 7, room temperature, epifluorescence read-out) [nM] | peptide concentration gradient through the mucus layer compared with buffer (mucus from ovulating women (n = 20), microfluidic channel, 4 μM FAM-labelled peptide in H7 buffer pH 7, room temperature, epifluorescence read-out) |
| --- | --- | --- | --- | --- | --- | --- | --- |
| 19.3 | 36.9 | 10.6 | C[C@H](NC(=O)c1ccc2c(c1)C1(OC2=O)c2ccc(O)cc2Oc2cc(O)ccc21)C(=O)N[C@@H](CCCCN)C(=O)N[C@@H](C)C(=O)N[C@@H](CCCCN)C(=O)N[C@@H](C)C(=O)N[C@@H](CCCCN)C(=O)N[C@@H](C)C(=O)N[C@@H](CCCCN)C(=O)N[C@@H](C)C(=O)N[C@@H](CCCCN)C(=O)N[C@@H](C)C(=O)N[C@@H](CCCCN)C(=O)N[C@@H](C)C(=O)N[C@@H](CCCCN)C(=O)N[C@@H](C)C(=O)N[C@@H](CCCCN)C(=O)N[C@@H](C)C(=O)N[C@@H](CCCCN)C(=O)N[C@@H](C)C(=O)N[C@@H](CCCCN)C(N)=O [(+) peptide] (6FAM-AKAKAKAKAKAKAKAKAKAK-NH2) | – | – | – | – |
| – | – | – | C[C@H](NC(=O)c1ccc2c(c1)C1(OC2=O)c2ccc(O)cc2Oc2cc(O)ccc21)C(=O)N[C@@H](CCC(=O)O)C(=O)N[C@@H](C)C(=O)N[C@@H](CCC(=O)O)C(=O)N[C@@H](C)C(=O)N[C@@H](CCC(=O)O)C(=O)N[C@@H](C)C(=O)N[C@@H](CCC(=O)O)C(=O)N[C@@H](C)C(=O)N[C@@H](CCC(=O)O)C(=O)N[C@@H](C)C(=O)N[C@@H](CCC(=O)O)C(=O)N[C@@H](C)C(=O)N[C@@H](CCC(=O)O)C(=O)N[C@@H](C)C(=O)N[C@@H](CCC(=O)O)C(=O)N[C@@H](C)C(=O)N[C@@H](CCC(=O)O)C(=O)N[C@@H](C)C(=O)N[C@@H](CCC(=O)O)C(N)=O [(−) peptide] (6FAM-AEAEAEAEAEAEAEAEAEAE-NH2) | 1100 | not detected in any of the high-risk samples | 500 | nearly identical with or without mucus present |

From article PMC5583328, “Probing the potential of mucus permeability to signify preterm birth risk” (Scientific Reports, 2017)
